Residues, ends and D or L forms follow the SMILES beside them. *: point of attachment. Cbz = O=C(OCc1ccccc1)*
Assays:
ob/ob mice [1] = experiment: IP injection of Z-PP, food intake in ob/ob mice; type: in vivo, mouse
Protocol: For this study 10 ob/ob mice were used. Mice were injected at the beginning of the dark phase intraperitoneally with 2 doses of 5 mg Z-PP every 12 hours and food intake was measured every 12 hours after the last injection. Control mice were injected at the same times and with the same volume of vehicle. Note that for Z-PP doses lower than 5 mg were ineffective in reducing food intake.

wild type mice = experiment: IP administration of α-MSH and MTII, food intake in wild type mice; type: in vivo, mouse; settings: 200 nmol ip
Protocol: Wild type and PRCP KO mice were used in this study. Animals were single caged and injected with saline at the beginning of the dark phase for 3 days. For each mouse, food intake was measured at 4, 12 and 24 hours after the injection. After 3 days, animals were divided in 6 groups: 1) wild type mice receiving 200 nmol MTII in saline; 2) wild type mice receiving 200 nmol α-MSH in saline; 3) wild type mice receiving saline; 4) PRCP KO mice receiving 200 nmol of MTII in saline; 5) PRCP KO mice receiving 200 nmol α-MSH; 6) PRCP KO mice receiving saline.

[2] = target: T1, rPRCP51 (recombinant PRCP) (Homo sapiens, UniProt P42785); experiment: Substrate inhibition assay: rPRCP51-induced prekallikrein (PK) activation; type: biochemical; settings: at 1 mM peptide
T1 construct: Human PRCP cDNA, lacking the first 391 base pairs of PRCP (Prcpnt391-1845); BiP secretion signal (from vector pMT/BiP/V5-His C) (N); His tag (from vector pMT/BiP/V5-His C) (C); made in house; host or cells: Schneider 2 (Drosophila S2) cells
T1 sequence (P42785 46-496): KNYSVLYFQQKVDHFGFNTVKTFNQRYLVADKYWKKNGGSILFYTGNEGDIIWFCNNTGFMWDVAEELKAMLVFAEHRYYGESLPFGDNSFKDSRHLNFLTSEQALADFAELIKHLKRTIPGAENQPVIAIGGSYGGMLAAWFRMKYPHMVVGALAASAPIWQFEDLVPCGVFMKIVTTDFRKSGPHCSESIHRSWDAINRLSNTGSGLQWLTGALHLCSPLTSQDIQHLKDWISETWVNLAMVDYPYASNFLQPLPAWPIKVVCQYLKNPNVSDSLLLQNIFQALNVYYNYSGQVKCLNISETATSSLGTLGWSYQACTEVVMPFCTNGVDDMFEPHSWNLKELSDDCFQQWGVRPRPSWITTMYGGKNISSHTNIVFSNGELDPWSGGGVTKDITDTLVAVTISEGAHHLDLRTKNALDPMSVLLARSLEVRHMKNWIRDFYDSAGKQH
Protocol: Panel A: Increasing concentration of α-MSH, MSH1-12, or AgII (0.001-1 mM) were incubated with 8 nM of recombinant PRCP51 at 37° C. in microtiter plate cuvette wells with preabsorbed HK and containing 20 nM PK. The liberation of paranitroanilide (pNA) from the S2302 by the formed plasma kallikrein in the presence of the peptide was measured at 405 nm and the results are expressed as residual formed plasma kallikrein activity. The data represent the mean±SEM of three independent measurements.
pMT/BiP/V5-His C was employed as the basal plasmid in vector construction. […]
Samples containing 8 nM rPRCP51 in […] total volume were prepared in the absence or presence of increasing concentration of peptide α-MSH, MSH1-12 or AgII in HEPES carbonate buffer (137 mM NaCl, 3 mM KCl, 12 mM NaHCO3, 14.7 mM HEPES, 5.5 mM dextrose and 0.1% gelatin, pH 7.1 containing 10 mM CaCl2, and 1 mM MgCl2) in microtiter plate cuvette wells with previously absorbed HK at […] and with 20 nM PK at 37° C. The ability of purified rPRCP51 to activate PK bound to HK on plastic microtiter plates was determined in the absence or presence of increasing concentrations (0.001-1 mM) of the peptide (McCarthy et al., 2003; Shariat-Madar et al., 2002). […] The rate of hydrolysis was recorded at different concentrations of peptide and expressed as percent kallikrein activity remaining. […]

fasted rats = experiment: ICV injection of α-MSH and α-MSH1-12, food intake in fasted rats; type: in vivo, rat; settings: 2.5 μg ICV, 12 hour-fasted rats
Protocol: Eighteen male rats (200-250 gr) were used in this study. Animals with a third ventricle cannulation were purchased from Taconic Farms Inc. Rats were single caged and divided in 3 groups: animals injected with saline, animals injected with 2.5 μg of […]-MSH and animals injected with 2.5 μg of α-MSH1-12. All the rats were fasted overnight. The next morning, the animals were injected and a known amount of food was given and measured after 2 hours from re-feeding (Abbott et al., 2000).

POMC-GFP neurons = experiment: Whole cell patch clamp electrophysiology of POMC-GFP neurons in hypothalamic slices; type: cell-based, mouse; settings: bath application, current clamp
Protocol: Coronal hypothalamic brain slices (˜300 μm) were prepared with a Vibratome from POMC-GFP transgenic mice. Slices were maintained at room temperature in artificial cerebrospinal fluid saturated with 95% O2 and 5% CO2. Slices were equilibrated in the recording chamber for 1 hr at 35° C. in ACSF saturated with 95% O2 and 5% CO2 prior to recordings. ACSF contains (mM): NaCl, 124; KCl, 3; CaCl2, 2; MgCl2, 2; NaH2PO4, 1.23; NaHCO3, 26; glucose, 10; pH 7.4 with NaOH. An upright fluorescence/infrared microscope with long working distance objectives (Olympus BX51WI) and fluorescence filter sets for GFP (Chroma Technology Corp) was used. Fluorescent POMC-GFP neurons were selected and a patch pipette (4-6 mega Ohm resistance) was advanced onto the surface of the neuron by a micromanipulator (Sutter 225). The pipette solution contains (in mM) K gluconate, 128; HEPES, 10; EGTA, 1; KCl, 10; MgCl2, 1; CaCl2, 0.3; (Mg)-ATP, 5; (Na)GTP, 0.3, PH.7.4. Whole cell patch clamp experiments were performed with a Multiclamp 700A amplifier (Axon Instruments, Inc). Whole cell current clamp was used to monitor the effect of α-MSH on membrane potential of recorded neurons held at resting membrane potential. […] Eletrophysiological data were analyzed with Axograph 4.9 (Axon Instruments), plotted with Igor Pro software (WaveMetrics, Lake Oswego, Oreg., USA) and presented as the mean±SEM. […]

rats = experiment: ICV injection of B-PP, food intake in rats; type: in vivo, rat
Protocol: Twelve male rats (200-250 gr) were used in this study. Animals with a third ventricle cannulation were purchased from Taconic Farms Inc. […] A known amount of food was given to the animals and weighted every 24 hours.

ob/ob mice [3] = experiment: IP injection of B-PP, food intake in ob/ob mice; type: in vivo, mouse; settings: 400 μg systemically (ip)
Protocol: For this study 10 ob/ob mice were used. Mice were injected at the beginning of the dark phase intraperitoneally with 2 doses of […] of B-PP every 24 hours and food intake was measured before each injection and every 24 hours after the last administration. Control mice were injected at the same times and with same volume of vehicle.

## O=C[C@@H]1CCCN1C(=O)[C@@H]1CCCN1C(=O)OCc1ccccc1 [Z-PP, N-benzyloxycarbonyl-prolyl-prolinal] (Cbz-Pro-Pro-aldehyde)
ob/ob mice [1]; 5 mg ip, after 24 hours from the last injection
  food intake compared to vehicle controls: no difference
ob/ob mice [1]; 5 mg ip, ob/ob mice
  effect on food intake: suppress food intake, but with lower efficacy than that of B-PP
ob/ob mice [1]; doses lower than 5 mg ip, ob/ob mice
  effect in reducing food intake: ineffective

## Ac-Nle^4-c[Asp^5, D-Phe^7, Lys^10] α-MSH-(4-10)-NH2 [MTII]
Wild type mice
  food intake compared to 100% controls: 35.5%

## Ac-STSMEHFRWGKP-COOH (Ac-STSMEHFRWGKP-OH) [α-MSH1-12, putative product of PRCP hydrolysis of α-MSH, lacks the C-terminal Val]
[2]
  inhibition of rPRCP51 activity: about 20%
Fasted rats
  effect on food intake compared to saline controls: did not significantly affect food intake
Fasted rats; 2 hours from re-feeding
  food intake: 8.89 ± 0.90 g
POMC-GFP neurons
  hyperpolarization of POMC membrane potential: undetectable

## t-butyl carbamate (BOC)-prolyl prolinal [B-PP]
rats; after 24 hours from the administration, controls 94.91%
  food intake, percent: 36.7%
rats; after 48 hours from the administration, controls 97.67%
  food intake, percent: 89.24%
ob/ob mice [3]
  effect on body weight gain: suppressed
  effect on food intake: suppressed

From patent publication US20080194485A1, “Detection and Use of Prolylcarboxypeptidase” (YALE UNIVERSITY, priority 2004, published 2008)
